Test results as given in ChEMBL document CHEMBL2375250, “Efficient synthesis of new (R)-2-amino-1-butanol derived ureas, thioureas and acylthioureas and in vitro evaluation of their antimycobacterial activity” (Eur J Med Chem, 2013).
Converted amounts (≈) assume the structure as drawn.

Tests used:
[1] = tested on: Mycobacterium tuberculosis; test: Antimycobacterial activity against multidrug-resistant Mycobacterium tuberculosis 43 assessed as growth inhibition after 45 days by Lowenstein-Jensen method; assay type: functional
[2] = tested on: Mycobacterium tuberculosis; test: Antimycobacterial activity against multidrug-resistant Mycobacterium tuberculosis 43 assessed as bacterial growth at 5 uM after 45 days by Lowenstein-Jensen method; assay type: functional

Row | Compound | MIC [1] [µM] | Activity [2] [%]
1 | CC[C@H](CO)NC(=S)NC(=O)/C=C/c1ccccc1 | > 18 | 100
2 | CC[C@H](CO)NC(=S)NC(=O)c1ccc(N(C)C)cc1 | > 16.9 | 100
3 | CC[C@H](CO)NC(=S)NC(=O)c1ccccc1O | 7.46 (≈ 2 µg/mL) | 
4 | CC[C@H](CO)NC(=S)NC(=O)CCc1ccccc1 | > 17.8 | 100
